Converted amounts (≈) assume the structure as drawn.
What was measured:
[1] = tested on: α-glucosidase from Saccharomyces sp.; assay: α-glucosidase inhibitory activity assay (pNPG substrate, absorbance 405 nm); assay type: biochemical
Excerpt: ^1H- and ^13C-NMR spectra and correlation NMR spectra such as COSY, HMBC, HMQC, and DEPT were obtained from a Bruker Avance DPX 400 (or 600) spectrometer (Berlin, Germany). These were obtained at operating frequencies of 400 MHz (^1H) and 100 (or 150) MHz (^13C) with CD3OD, (CD3)2SO, (CD3)2CO, or D2O and TMS was used as an internal standard; chemical shifts were reported in δ values. The α-glucosidase from Saccharomyces sp. (SSG) was purchased from Wako Pure Chemical Industries Ltd (Tokyo, Japan). […] All other chemicals and reagents used were of analytical grade.
The α-glucosidase inhibitory activity of the extracts and fractions was determined using a modified procedure reported method with a slight modification. The α-glucosidase activity was measured using the substrate p-nitrophenyl-α-D-glucopyranoside (pNPG), which is hydrolyzed by α-glucosidase to release the product p-nitrophenol, a colorant that can be monitored at 405 nm. The initial concentration of the enzyme solution was 0.62 unit/mL in 0.1 M phosphate buffer (pH 6.9) and the initial concentration of the substrate solution was 2 mM in the same phosphate buffer. The enzyme solution was mixed with water and the samples or controls in a clear 96-well microplate (flat bottom) and the reaction was initiated by addition of the substrate to the solution. The plates were incubated at 37 °C for 5 min and the reaction was terminated by the addition of 0.1 M Na2CO3. […] Background absorbance was determined using a non-enzyme control microplate containing the buffer and was subtracted from the absorbance of the samples and controls.

[2] = tested on: advanced glycation end products (AGEs); assay: AGEs inhibitory activity, bovine serum albumin-methylglyoxal assay (fluorescence); assay type: biochemical; conditions: 100 μg/mL
Experimental: The modified procedure of Lee et al. was followed. Bovine serum albumin (10 mg/mL) was incubated with 5 mM methylglyoxal in sodium phosphate buffer (100 mM; pH 7.4). […] All of the reagents and samples were […] by filtration through 0.2 μm membrane filters and the mixture was incubated at 37 °C for 7 days. The fluorescence intensity was measured at an excitation wavelength of 330 nm and an emission wavelength of 410 nm with a LS50B fluorescence spectrometer Perkin-Elmer Ltd., (Buckinghamshire, FLS, UK). Aminoguanidine was also tested as a known inhibitor.

[3] = target: T1, protein tyrosine phosphatase 1β (PTP1β) (Homo sapiens, UniProt P18031); assay: PTP1β inhibitory activity assay (colorimetric kit, IR5 phosphopeptide substrate); assay type: biochemical; conditions: - is no activity; for inhibition at 10 µg/mL: 10 μg/mL; for IC50: isolated compounds
T1 sequence (P18031 1-322 limits assumed): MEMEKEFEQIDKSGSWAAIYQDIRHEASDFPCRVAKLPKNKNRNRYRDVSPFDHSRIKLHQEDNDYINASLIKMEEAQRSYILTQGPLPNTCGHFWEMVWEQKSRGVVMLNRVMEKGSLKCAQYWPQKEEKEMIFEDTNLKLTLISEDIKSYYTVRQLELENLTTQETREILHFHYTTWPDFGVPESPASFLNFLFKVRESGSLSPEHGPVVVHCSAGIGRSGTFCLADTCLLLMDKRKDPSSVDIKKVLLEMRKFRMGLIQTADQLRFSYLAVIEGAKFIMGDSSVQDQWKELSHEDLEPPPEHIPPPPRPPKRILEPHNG
Experimental: PTP1β tyrosine phosphatase drug discovery kit is a colorimetric, non-radioactive assay designed to measure the phosphatase activity of purified PTP1β. […] Following incubation at 37 °C for 30 min, the reaction was terminated with the BIOMOL RED^TM reagent. The amount of […] produced was estimated by measuring the absorbance at 620 nm. The non-enzymatic hydrolysis of the IR5 substrate was corrected by measuring the increase in absorbance at 620 nm obtained in the absence of PTP1β enzyme.

[4] = tested on: rat lens aldose reductase; conditions: compounds from X. strumarium; cited from earlier work
[5] = tested on: recombinant aldose reductase; conditions: compounds from X. strumarium; cited from earlier work
PTP1β = tested on: PTP1β; design: method as in ref 16 (Hwang et al.); conditions: compounds isolated from Zea mays L.; ref 16 (Hwang et al.); cited from earlier work
α-glucosidase = target: α-glucosidase; design: method as in ref 15 (Chen et al.); conditions: compounds isolated from aerial parts of Gynura divaricate; ref 15 (Chen et al.); read-out: inhibitory effects against α-glucosidase; cited from earlier work

| Compound | Inhibition (%) α-glucosidase ([1]; 50 μg/mL, - is no activity) | inhibition at 10 µg/mL [3] | IC50 [3] | Inhibition (%) AGEs [2] | rat lens aldose reductase inhibitory activity [4] | recombinant aldose reductase inhibitory activity [5] | also measured |
| --- | --- | --- | --- | --- | --- | --- | --- |
| O=C(/C=C/c1ccc(O)c(O)c1)O[C@@H]1C[C@](O)(C(=O)O)C[C@@H](O)[C@H]1O [compound 5, chlorogenic acid] | 6.60% |  |  | 7.47% |  |  |  |
| O=C(/C=C/c1ccc(O)c(O)c1)O[C@@H]1C[C@](O)(C(=O)O)C[C@@H](OC(=O)/C=C/c2ccc(O)c(O)c2)[C@H]1O [compound 10, 3,5-di-O-caffeoylquinic acid] | 52.85% | 18.4% | > 19.4 µM | 42.91% | strong | strong | Inhibition (%) α-glucosidase ([1]; 5 μg/mL): 9.34%; Inhibition (%) α-glucosidase ([1]; 25 μg/mL): 33.72%; Inhibition (%) α-glucosidase ([1]; 100 μg/mL): 99.44%; IC50 ([1]; isolated compounds): 88.1 µM; IC50 α-glucosidase ([1]; isolated compounds, - is no activity): 45.48 ± 4.52 µg/mL (≈ 88.1 µM) |
| O=c1c(O[C@@H]2O[C@H](CO)[C@@H](O)[C@H](O)[C@H]2O)c(-c2ccc(O)c(O)c2)oc2cc(O)cc(O)c12 [hirsutrin] |  |  |  |  |  |  | PTP1β inhibitory activity IC50 (PTP1β): no activity |
| COC(=O)[C@]1(O)C[C@@H](O)[C@@H](OC(=O)/C=C/c2ccc(O)c(O)c2)[C@H](OC(=O)/C=C/c2ccc(O)c(O)c2)C1 [methyl 3,4-di-O-CQA] |  |  |  |  |  |  | IC50 (α-glucosidase): 12.2 µM |
| methyl 4,5-di-O-CQA |  |  |  |  |  |  | IC50 (α-glucosidase): 13.1 µM |

Now from value to compound, other results behind:

| Inhibition (%) α-glucosidase ([1]; 50 μg/mL, - is no activity) | inhibition at 10 µg/mL [3] | IC50 [3] | Compound | Inhibition (%) AGEs [2] | rat lens aldose reductase inhibitory activity [4] | recombinant aldose reductase inhibitory activity [5] | also measured |
| --- | --- | --- | --- | --- | --- | --- | --- |
| 6.11% | < 0% | > 19.7 µM | COc1c(O)cc2oc(-c3ccc(O)c(O)c3)c(OC3OC(C(=O)O)C(O)C(O)C3O)c(=O)c2c1O (stereo not shown) [compound 8, patuletin-3-glucuronide] | 6.11% |  |  |  |
| 15.40% | 10.7% | > 20.9 µM | O=C(O)C1OC(Oc2c(-c3ccc(O)c(O)c3)oc3cc(O)cc(O)c3c2=O)C(O)C(O)C1O (stereo not shown) [compound 9, quercetin-3-O-glucuronide] | 23.96% |  |  |  |
| 46.20% | 10.6% | > 19.4 µM | O=C(/C=C/c1ccc(O)c(O)c1)O[C@@H]1C[C@](OC(=O)/C=C/c2ccc(O)c(O)c2)(C(=O)O)C[C@@H](O)[C@H]1O [compound 11, 1,5-di-O-caffeoylquinic acid] | 25.04% | strong | strong |  |
| 38.37% | 22.3% | > 19.4 µM | O=C(/C=C/c1ccc(O)c(O)c1)O[C@@H]1C[C@@](OC(=O)/C=C/c2ccc(O)c(O)c2)(C(=O)O)C[C@@H](O)[C@@H]1O [compound 12, 1,3-di-O-caffeoylquinic acid] | 40.19% | strong | strong |  |
| 22.05% | 39.2% | > 14.7 µM | O=C(/C=C/c1ccc(O)c(O)c1)O[C@@H]1C[C@](OC(=O)/C=C/c2ccc(O)c(O)c2)(C(=O)O)C[C@@H](OC(=O)/C=C/c2ccc(O)c(O)c2)[C@H]1O [compound 13, 1,3,5-tri-O-caffeoylquinic acid] | 40.22% | strong | strong |  |
| 5.82% | < 0% | > 19.8 µM | OC[C@H]1O[C@H](OC[C@H]2O[C@H](O[C@]3(CO)O[C@H](CO)[C@@H](O)[C@@H]3O)[C@H](O)[C@@H](O)[C@@H]2O)[C@H](O)[C@@H](O)[C@H]1O [compound 14, raffinose] | 14.99% |  |  |  |
